Measured values reported in ChEMBL document CHEMBL1201862, “PubChem BioAssay data set” (2004).
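Cells were grown in 96-well plates and exposed to each compound for 48 hours at five concentrations; endpoints were interpolated linearly between bracketing concentrations, or set to the highest concentration if not reached. GI50: concentration for 50% inhibition of growth.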 Activity calls are given as the source filed them. Rule as the data show it: active = GI50 up to about 1.1 µM and inactive = higher.

Key:
Assay in all cases: NCI tumour cell line growth inhibition, 48 h
786-0 = test system: 786-0
A498 = test system: A498
A549 = test system: A549
ACHN = test system: ACHN
CCRF-CEM = test system: CCRF-CEM
COLO 205 = test system: COLO 205
HL-60 = test system: HL-60
HOP-62 = test system: HOP-62
IGROV-1 = test system: IGROV-1
K562 = test system: K562
NCI-H226 = test system: NCI-H226
SF-539 = test system: SF-539
SK-MEL-28 = test system: SK-MEL-28
SK-MEL-5 = test system: SK-MEL-5
SK-OV-3 = test system: SK-OV-3
SN12C = test system: SN12C
SW-620 = test system: SW-620
TK-10 = test system: TK-10
U-251 = test system: U-251

Measured: GI50

N#CC(C#N)C(c1ccccc1)c1ccccc1
inactive: 786-0 > 100 µM | A498 > 100 µM | A549 > 100 µM | ACHN > 100 µM | CCRF-CEM > 100 µM | COLO 205 > 100 µM | HL-60 > 100 µM | HOP-62 > 100 µM | IGROV-1 > 100 µM | K562 91 µM | NCI-H226 > 100 µM | SF-539 > 100 µM | SK-MEL-28 > 100 µM | SK-MEL-5 > 100 µM | SK-OV-3 > 100 µM | SN12C > 100 µM | SW-620 > 100 µM | TK-10 > 100 µM | U-251 > 100 µM

O=C(CC(CC(=O)Oc1c(Br)cc(Br)cc1C(=O)O)C(=O)Oc1c(Br)cc(Br)cc1C(=O)O)Oc1c(Br)cc(Br)cc1C(=O)O
inactive: 786-0 > 100 µM | A498 81.5 µM | A549 47.5 µM | ACHN > 100 µM | CCRF-CEM 41.6 µM | COLO 205 > 100 µM | HL-60 43.7 µM | HOP-62 46.5 µM | IGROV-1 29 µM | K562 41.4 µM | NCI-H226 20.7 µM | SF-539 48.1 µM | SK-MEL-28 > 100 µM | SK-MEL-5 > 100 µM | SK-OV-3 54.7 µM | SN12C 52.1 µM | SW-620 69.5 µM | TK-10 51.4 µM | U-251 46.6 µM

O=C(/N=c1/[nH]/c(=N/C(=O)c2ccccc2)ss1)c1ccccc1
inactive: 786-0 25.5 µM | A498 23.4 µM | A549 11.4 µM | ACHN 13.8 µM | CCRF-CEM 16 µM | COLO 205 22.9 µM | HL-60 14.7 µM | HOP-62 21.9 µM | IGROV-1 6.64 µM | K562 20.4 µM | NCI-H226 38.8 µM | SF-539 12.9 µM | SK-MEL-28 23.9 µM | SK-MEL-5 5.11 µM | SK-OV-3 34.7 µM | SN12C 16.5 µM | SW-620 25.5 µM | TK-10 26.1 µM | U-251 7.55 µM

CC(C)[C@@H](COC(C)(C)C)/N=C/N1CCc2c([nH]c3ccccc23)C1
inactive: 786-0 > 100 µM | A498 > 100 µM | A549 > 100 µM | ACHN > 100 µM | CCRF-CEM > 100 µM | COLO 205 > 100 µM | HL-60 > 100 µM | HOP-62 > 100 µM | IGROV-1 > 100 µM | K562 > 100 µM | NCI-H226 > 100 µM | SF-539 > 100 µM | SK-MEL-28 > 100 µM | SK-MEL-5 > 100 µM | SK-OV-3 > 100 µM | SN12C > 100 µM | SW-620 > 100 µM | TK-10 > 100 µM | U-251 > 100 µM

CCOc1ccc(NC(=O)C2=C(C)NC(C)=C(C(=O)Nc3ccc(OCC)cc3)C2c2ccccc2)cc1
inactive: 786-0 88.7 µM | A498 > 100 µM | A549 > 100 µM | ACHN 74.6 µM | CCRF-CEM 31.3 µM | COLO 205 > 100 µM | HL-60 29.9 µM | HOP-62 > 100 µM | IGROV-1 > 100 µM | K562 38.5 µM | NCI-H226 > 100 µM | SF-539 > 100 µM | SK-MEL-28 > 100 µM | SK-MEL-5 74.3 µM | SK-OV-3 > 100 µM | SN12C > 100 µM | SW-620 > 100 µM | TK-10 > 100 µM | U-251 > 100 µM

O=C1CCC(=O)c2sccc2N1
inactive: 786-0 > 100 µM | A498 > 100 µM | A549 > 100 µM | ACHN > 100 µM | CCRF-CEM > 100 µM | COLO 205 > 100 µM | HL-60 > 100 µM | HOP-62 > 100 µM | IGROV-1 > 100 µM | K562 > 100 µM | NCI-H226 > 100 µM | SF-539 > 100 µM | SK-MEL-28 > 100 µM | SK-MEL-5 > 100 µM | SK-OV-3 > 100 µM | SN12C > 100 µM | SW-620 > 100 µM | TK-10 > 100 µM | U-251 > 100 µM

CCOC(=O)C1=NC(c2ccccc2)(c2ccccc2)OC1=C(Cl)Cl
inactive: 786-0 > 100 µM | A498 > 100 µM | A549 54.6 µM | ACHN 50.4 µM | CCRF-CEM 33.6 µM | COLO 205 > 100 µM | HL-60 11.9 µM | HOP-62 > 100 µM | IGROV-1 > 100 µM | K562 32 µM | NCI-H226 > 100 µM | SF-539 > 100 µM | SK-MEL-28 > 100 µM | SK-MEL-5 39.5 µM | SK-OV-3 > 100 µM | SN12C > 100 µM | SW-620 82.4 µM | TK-10 > 100 µM | U-251 74.6 µM

COc1cccc(NC(=O)C(=O)C(C(C)=O)c2nc3ccc(Cl)cc3nc2O)c1 (stereo not given)
inactive: 786-0 > 100 µM | A498 > 100 µM | A549 > 100 µM | ACHN > 100 µM | CCRF-CEM > 100 µM | COLO 205 > 100 µM | HL-60 > 100 µM | HOP-62 > 100 µM | IGROV-1 > 100 µM | K562 > 100 µM | NCI-H226 > 100 µM | SF-539 > 100 µM | SK-MEL-28 > 100 µM | SK-MEL-5 > 100 µM | SK-OV-3 > 100 µM | SN12C > 100 µM | SW-620 > 100 µM | TK-10 > 100 µM | U-251 > 100 µM

COC(=O)C(C(=O)C(=O)Nc1ccc(C)cc1)c1nc2ccc([N+](=O)[O-])cc2nc1O (stereo not given)
inactive: 786-0 > 100 µM | A498 > 100 µM | A549 > 100 µM | ACHN > 100 µM | CCRF-CEM 36.1 µM | COLO 205 53.5 µM | HL-60 35.6 µM | HOP-62 > 100 µM | IGROV-1 > 100 µM | K562 30.1 µM | NCI-H226 > 100 µM | SF-539 > 100 µM | SK-MEL-28 > 100 µM | SK-MEL-5 49.1 µM | SK-OV-3 > 100 µM | SN12C > 100 µM | SW-620 > 100 µM | TK-10 > 100 µM | U-251 37.6 µM

N#CCc1ccc(C(C#N)/C(CCCC(=O)Nc2cccc([N+](=O)[O-])c2)=N/NC(N)=S)cc1 (stereo not given)
inactive: 786-0 > 100 µM | A498 > 100 µM | A549 > 100 µM | ACHN > 100 µM | CCRF-CEM 51.6 µM | COLO 205 > 100 µM | HL-60 > 100 µM | HOP-62 > 100 µM | IGROV-1 > 100 µM | K562 81.7 µM | NCI-H226 > 100 µM | SF-539 > 100 µM | SK-MEL-28 > 100 µM | SK-MEL-5 > 100 µM | SK-OV-3 > 100 µM | SN12C > 100 µM | SW-620 > 100 µM | TK-10 > 100 µM | U-251 > 100 µM
